Measured values published in patent publication US20250136606A1, “MODULATORS OF TRPML, THEIR COMPOSITIONS AND METHODS OF USE” (Caraway Therapeutics, Inc., priority 2021, published 2025).
Where two headings read alike, the source gives them in different places.

Assays:
TRPML1 = TRPML1 (Homo sapiens, UniProt Q9GZU1); experiment: Fluorescent TRPML1 assay (Fluo4-AM calcium fluorescence in doxycycline-induced HEK-293 Trex cells); assay type: cell-based
Method: (§1) HEK-293 Trex cells were stably transfected with a construct consisting of the human coding sequence for TRPML1 cloned into the […] plasmid pCDNA5 T/O. Mutations were introduced into the TRPML1 sequence to facilitate expression on the cell surface (Silvia Vergarajauregui, Rosa Puertollano, Traffic. 2006 March; 7(3): 337-353). Briefly, the cells are cultured in 150 mm round tissue culture dishes containing 20 mL of media. The day before the assay the cells are rinsed with DPBS-Ca—Mg and then treated briefly with Trypsin-EDTA. The Trypsin-EDTA is diluted with growth media, and cells are counted. 38×10^6 cells are re-plated into 150 mm round tissue culture dishes in media containing 0.5 ug/mL doxycycline to induce expression of hTRPML1.
(§2) The day of the experiment cells are lifted from the plates as above and collected by centrifugation. The cells are then suspended in dye loading buffer consisting of Ringer's solution supplemented with 0.1% Pluronic Acid and 1 micromolar Fluo4-AM dye. Cells are loaded for ˜60 minutes in the dark with occasional mixing. The cells are collected by centrifugation, the loading media aspirated, and the cells resuspended in 25 mL Ringer's solution and incubated ˜60 minutes in the dark. The cells are again collected by centrifugation, rinsed in Ringer's Solution and resuspended to […] in modified Ringer's solution containing 10 mM calcium.
(§3) Compounds are dissolved to a concentration of 10 millimolar with DMSO. Compound plates are created by dispensing compounds into 384 well black wall clear bottom plates (Greiner 781091). Positive and negative controls are included on each plate. Typically, different amounts of each compound are tested ranging from 100 nanoMoles (20 micromolar final concentration) decreasing in half-log steps to 31 picoMoles (6 nanomolar final concentration). Each concentration is typically tested in triplicate.
(§4) 50 microliters of dye-loaded cells are dispensed into each well of the compound assay plate created above. The fluorescence in each well is then determined with an excitation wavelength of 480 nm and an emission wavelength of 540 nm using either a Molecular Devices SpectraMax multimode plate reader or a Hamamatsu FDSS/uCell plate imager.
(§5) The resulting fluorescence for each well is exported as an ascii file and loaded into our LIMS for analysis. The percent activity of each compound at each concentration is determined by comparison to the positive and negative control wells included in each plate.
(§6) EC50 values were calculated using a non-linear regression of Prism. In the table, “A” indicates an EC50 of less than 100 nM, “B” indicates an EC50 range from 100 nM to 500 nM; “C” indicates an EC50 range from 500 nM to 2 μM; and “D” indicates an EC50 greater than 2 μM.

TRPML3 = target: T1, TRPML3 (Homo sapiens, UniProt Q8TDD5); experiment: Fluorescent TRPML3 assay (performed as for TRPML1, substituting the TRPML3 subtype); assay type: cell-based
T1 construct: expressed in transfected cells
T1 sequence (Q8TDD5 1-553): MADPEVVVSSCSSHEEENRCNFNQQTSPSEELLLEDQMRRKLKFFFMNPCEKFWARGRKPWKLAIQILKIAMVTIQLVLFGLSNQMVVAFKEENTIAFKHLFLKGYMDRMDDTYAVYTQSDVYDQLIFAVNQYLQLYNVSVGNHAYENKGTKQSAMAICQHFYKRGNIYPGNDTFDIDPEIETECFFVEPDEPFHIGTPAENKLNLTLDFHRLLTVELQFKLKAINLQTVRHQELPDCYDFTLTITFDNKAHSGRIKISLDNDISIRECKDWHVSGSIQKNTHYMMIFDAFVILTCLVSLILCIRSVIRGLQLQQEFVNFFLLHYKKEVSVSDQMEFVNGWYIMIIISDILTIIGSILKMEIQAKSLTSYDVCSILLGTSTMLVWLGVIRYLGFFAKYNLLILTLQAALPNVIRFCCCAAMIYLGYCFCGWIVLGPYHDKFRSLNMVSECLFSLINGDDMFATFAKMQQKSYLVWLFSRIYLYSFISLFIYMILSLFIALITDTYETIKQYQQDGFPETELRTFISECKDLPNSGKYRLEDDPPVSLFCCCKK
Method: as §1, §2, §3, §4, §5
TRPML2 and TRPML3 Assays Assays for TRPML2 and TRPML3 were performed as above for TRPML1, by substituting the appropriate TRPML2 or TRPML3 subtype for the TRPML1.
as §6

Sequence of TRPML1 (Q9GZU1 whole entry L15A/L16A/L577A/L578A, form open): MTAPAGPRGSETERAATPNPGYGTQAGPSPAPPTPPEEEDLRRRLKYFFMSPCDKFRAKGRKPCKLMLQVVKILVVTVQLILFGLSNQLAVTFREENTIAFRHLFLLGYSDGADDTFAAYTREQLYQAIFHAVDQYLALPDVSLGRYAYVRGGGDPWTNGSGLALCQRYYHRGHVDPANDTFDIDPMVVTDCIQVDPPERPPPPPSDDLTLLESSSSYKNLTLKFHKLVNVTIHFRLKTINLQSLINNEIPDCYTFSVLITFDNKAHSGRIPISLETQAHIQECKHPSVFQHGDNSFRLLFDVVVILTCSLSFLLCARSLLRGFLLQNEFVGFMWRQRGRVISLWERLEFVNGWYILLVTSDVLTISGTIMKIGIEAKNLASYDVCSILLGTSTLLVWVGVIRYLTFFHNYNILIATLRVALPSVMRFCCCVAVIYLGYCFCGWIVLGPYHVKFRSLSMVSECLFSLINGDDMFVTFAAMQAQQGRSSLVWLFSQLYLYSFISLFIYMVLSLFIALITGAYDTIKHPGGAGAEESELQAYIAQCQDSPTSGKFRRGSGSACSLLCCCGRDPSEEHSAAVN

SMILES	EC50 (TRPML1; fluorescent calcium assay) [nM]	EC50 (TRPML3; fluorescent calcium assay) [nM]	EC50 (TRPML1) [nM]	EC50 (TRPML3) [nM]
C[C@H]1CN(C(=O)OCC(F)(F)F)CCN1c1ncnc2c1c(-c1ccccn1)cn2-c1cc(C#N)ccn1 [Compound 372, 2,2,2-trifluoroethyl (S)-4-(7-(4-cyanopyridin-2-yl)-5-(pyridin-2-yl)-7H-pyrrolo[2,3-d]pyrimidin-4-yl)-3-methylpiperazine-1-carboxylate]	100 to 500	100 to 500	–	–
N#Cc1ccnc(-n2cc(-c3ccccc3F)c3c(N4CCN(C(=O)OCC(F)(F)F)CC4)ncnc32)c1 [Compound 373, 2,2,2-trifluoroethyl 4-(7-(4-cyanopyridin-2-yl)-5-(2-fluorophenyl)-7H-pyrrolo[2,3-d]pyrimidin-4-yl)piperazine-1-carboxylate]	100 to 500	< 100	–	–
C[C@H]1CN(C(=O)OC(C)(C)C)CCN1c1ncnc2c1c(N1CCOCC1)cn2-c1cc(C#N)ccn1 [Compound 380, tert-butyl (S)-4-(7-(4-cyanopyridin-2-yl)-5-morpholino-7H-pyrrolo[2,3-d]pyrimidin-4-yl)-3-methylpiperazine-1-carboxylate]	100 to 500	500 to 2000	–	–
C[C@H]1CN(C(=O)OC(C)(C)C)CCN1c1ncnc2c1c(C1CC1)cn2C1CCCC(F)(F)C1 (stereo partly drawn) [Compound 382, tert-butyl (3S)-4-(5-cyclopropyl-7-(3,3-difluorocyclohexyl)-7H-pyrrolo[2,3-d]pyrimidin-4-yl)-3-methylpiperazine-1-carboxylate]	500 to 2000	500 to 2000	–	–
C[C@H]1CN(C(=O)OC(C)(C)C)CCN1c1ncnc2c1c(N1CCCC1)cn2C12CCC(CC1)CC2 [Compound 383, tert-butyl (S)-4-(7-(bicyclo[2.2.2]octan-1-yl)-5-(pyrrolidin-1-yl)-7H-pyrrolo[2,3-d]pyrimidin-4-yl)-3-methylpiperazine-1-carboxylate]	100 to 500	> 2000	–	–
CC(C)(OC(=O)N1CCN(c2ncnc3c2c(C2CC2)cn3-c2cc(C#N)ccn2)CC1)C(F)(F)F [Compound 385, 1,1,1-trifluoro-2-methylpropan-2-yl 4-(7-(4-cyanopyridin-2-yl)-5-cyclopropyl-7H-pyrrolo[2,3-d]pyrimidin-4-yl)piperazine-1-carboxylate]	100 to 500	100 to 500	–	–
CC(C)OC(=O)N1CCN(c2ncnc3c2c(C2CC2)cn3-c2cc(C#N)ccn2)[C@@H](C)C1 [Compound 386, isopropyl (S)-4-(7-(4-cyanopyridin-2-yl)-5-cyclopropyl-7H-pyrrolo[2,3-d]pyrimidin-4-yl)-3-methylpiperazine-1-carboxylate]	< 100	100 to 500	–	–
CC(C)(C)OC(=O)N1CCN(c2ncnc3c2c(-c2ccccc2F)cn3-c2cc(C#N)ccn2)CC12CC2 [Compound 392, tert-butyl 7-(7-(4-cyanopyridin-2-yl)-5-(2-fluorophenyl)-7H-pyrrolo[2,3-d]pyrimidin-4-yl)-4,7-diazaspiro[2.5]octane-4-carboxylate]	100 to 500	< 100	–	–
C[C@@H]1CN(C(=O)OC(C)(C)C)CCN1c1ncnc2c1c(C1CC1)cn2-c1cc(C#N)ccn1 [Compound 393, tert-butyl (R)-4-(7-(4-cyanopyridin-2-yl)-5-cyclopropyl-7H-pyrrolo [2,3-d]pyrimidin-4-yl)-3-methylpiperazine-1-carboxylate]	< 100	< 100	–	–
C[C@@H]1CN(c2ncnc3c2c(C2CC2)cn3-c2cc(C#N)ccn2)[C@@H](C)CN1C(=O)OC(C)(C)C [Compound 394, tert-butyl (2R,5S)-4-(7-(4-cyanopyridin-2-yl)-5-cyclopropyl-7H-pyrrolo[2,3-d]pyrimidin-4-yl)-2,5-dimethylpiperazine-1-carboxylate]	< 100	< 100	–	–
CC(C)(C)OC(=O)N1CCN(c2ncnc3c2c(C2CC2)cn3-c2cc(C#N)ccn2)CC1(C)C [Compound 395, tert-butyl 4-(7-(4-cyanopyridin-2-yl)-5-cyclopropyl-7H-pyrrolo[2,3-d]pyrimidin-4-yl)-2,2-dimethylpiperazine-1-carboxylate]	< 100	< 100	–	–
CC(C)(C)OC(=O)N1CCN(c2ncnc3c2c(C2CC2)cn3-c2cc(C#N)ccn2)CC12CC2 [Compound 396, tert-butyl 7-(7-(4-cyanopyridin-2-yl)-5-cyclopropyl-7H-pyrrolo[2,3-d]pyrimidin-4-yl)-4,7-diazaspiro[2.5]octane-4-carboxylate]	100 to 500	< 100	–	–
C[C@@H]1CN(c2ncnc3c2c(OC2CCC2)cn3-c2cc(C#N)ccn2)[C@@H](C)CN1C(=O)OC(C)(C)C [Compound 508, tert-butyl (2R,5S)-4-(7-(4-cyanopyridin-2-yl)-5-cyclobutoxy-7H-pyrrolo[2,3-d]pyrimidin-4-yl)-2,5-dimethylpiperazine-1-carboxylate]	–	–	< 100	< 100
C[C@@H]1CN(c2ncnc3c2c(C(F)(F)F)cn3-c2cc(C#N)ccn2)[C@@H](C)CN1C(=O)OC1CC1 [Compound 515, cyclopropyl (2R,5S)-4-(7-(4-cyanopyridin-2-yl)-5-(trifluoromethyl)-7H-pyrrolo[2,3-d]pyrimidin-4-yl)-2,5-dimethylpiperazine-1-carboxylate]	–	–	< 100	< 100

Now from value to compound, other results behind:

EC50 (TRPML1; fluorescent calcium assay) [nM]	EC50 (TRPML3; fluorescent calcium assay) [nM]	SMILES	EC50 (TRPML1) [nM]	EC50 (TRPML3) [nM]
> 2000	100 to 500	C[C@H]1CN(C(=O)OC(C)(C)C)CCN1c1ncnc2c1c(C1CC1)cn2-c1ncc(C#N)s1 [Compound 397, tert-butyl (S)-4-(7-(5-cyanothiazol-2-yl)-5-cyclopropyl-7H-pyrrolo[2,3-d]pyrimidin-4-yl)-3-methylpiperazine-1-carboxylate]	–	–
< 100	100 to 500	CC(C)C(=O)N1CCN(c2nccc3c2c(-c2ccccc2F)cn3-c2cc(C#N)ccn2)[C@@H](C)C1 [Compound 450, (S)-2-(3-(2-fluorophenyl)-4-(4-isobutyryl-2-methylpiperazin-1-yl)-1H-pyrrolo[3,2-c]pyridin-1-yl)isonicotinonitrile]	–	–
< 100	< 100	CC(C)(C)OC(=O)N1CCN(c2ncnc3c2c(-c2ccccc2F)cn3-c2nccc(C#N)n2)CC1 [Compound 459]	–	–
500 to 2000	100 to 500	CC(C)(C)OC(=O)N1CC2(C1)CN(c1ncnc3c1c(C1CC1)cn3-c1cc(Cl)cc(Cl)c1)C2 [Compound 464, tert-butyl 6-(5-cyclopropyl-7-(3,5-dichlorophenyl)-7H-pyrrolo[2,3-d]pyrimidin-4-yl)-2,6-diazaspiro[3.3]heptane-2-carboxylate]	–	–
> 2000	500 to 2000	C[C@@H]1CN(C(=O)OC(C)(C)C)CCN1c1ncnc2c1c(C1CCOCC1)cn2-c1cc(F)cc(F)c1 [Compound 467, tert-butyl (R)-4-(7-(3,5-difluorophenyl)-5-(tetrahydro-2H-pyran-4-yl)-7H-pyrrolo[2,3-d]pyrimidin-4-yl)-3-methylpiperazine-1-carboxylate]	–	–
500 to 2000	500 to 2000	C[C@H]1CN(C(=O)OC(C)(C)C)CCN1c1ncnc2c1c(C1CCOCC1)cn2-c1cccc(F)c1 [Compound 470, tert-butyl (S)-4-(7-(3-fluorophenyl)-5-(tetrahydro-2H-pyran-4-yl)-7H-pyrrolo[2,3-d]pyrimidin-4-yl)-3-methylpiperazine-1-carboxylate]	–	–
